Test results published in paper PMC9218685, “Legume Plant Peptides as Sources of Novel Antimicrobial Molecules Against Human Pathogens” (Frontiers in Molecular Biosciences, 2022).
Converted amounts (≈) assume the structure as drawn. Ends that are not written are not given here. Peptide text beside a SMILES is read from it.

Key:
Human red blood cells = assay: Hemolysis assay; assay type: cell-based; conditions: 1 h at 37°C in TBS pH 7.2, peptides 0.4–100 μM, hemoglobin release OD560, relative to 0.5% Triton X-100 = 100%
Method: Human blood was purchased from the Regional Blood Centre in Szeged. The use of human blood for the hemolysis assay has been authorized by the Regional Hungarian Ethics Committee and approved by the Ethics Review Sector of DG RTD (European Commission) in connection with EK’s ERC AdG SymBiotics. The cells from 10 ml of EDTA-blood were centrifuged at 1,500 × g for 1 min and washed several times in TBS buffer (10 mM Tris, pH = 7.2, 150 mM NaCl) until the supernatant became colorless. The cells were then resuspended in 12 ml TBS buffer and 100 μl of this cell suspension was incubated for 1 h at 37°C in the presence of NCR peptides (0.4–100 μM). The cells were centrifuged at 1,500 g for 1 min and the supernatants were transferred into sterile 96-well plates and the hemoglobin release was measured at OD560 (Hidex Sense Microplate Reader with Plate Reader Software version 5064). […] The hemolytic activity was calculated as % of red blood cell disruption relative to the positive control sample lysed with detergent Triton X-100.
While AMPs can be very effective against microbes, they should not be toxic for human cells. […] Disruption of red blood cells was measured by spectrophotometry and compared to samples lysed with the detergent Triton X-100 (Supplementary Figure S2). […]

[1] = system: E. coli, S. enteritidis, P. aeruginosa, L. monocytogenes, S. aureus, E. faecalis, K. pneumoniae and A. baumannii; assay: Antimicrobial activity assay, spectrum over the eight tested pathogenic bacteria; assay type: cell-based; conditions: 3 h treatment of ~10^7 log phase bacteria, peptides 25 to 0.8 µM; active = MBC ≤25 µM
Outline: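 MBC taken as the lowest peptide concentration leaving no viable bacteria after 3 h exposure of ~10^7 log-phase cells. Peptides tested by 2-fold serial dilution, 25 µM down to 0.8 µM, in PPB (pH 7.4). Gram-positive and Gram-negative reference strains from ATCC, NCTC and HNCMO collections.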

[2] = system: Acinetobacter baumannii (ATCC 17978); assay: microbe, parasite or virus in culture; assay type: cell-based; conditions: ATCC 17978, 3 h
Outline: (§1)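 MBC, defined as the lowest concentration giving complete killing, was read after a 3 h exposure. Peptides were two-fold serially diluted starting at 25 µM and applied to roughly 10^7 log-phase bacteria in pH 7.4 potassium-phosphate buffer.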

[3] = system: Pseudomonas aeruginosa (ATCC 27853); assay type: cell-based; conditions: ATCC 27853, 3 h
Outline: as §1

[4] = system: Escherichia coli (ATCC 8739); assay type: cell-based; conditions: ATCC 8739, 3 h
Outline: as §1

[5] = system: Enterococcus faecalis (ATCC 29212); assay type: cell-based; conditions: for Ability to kill E. faecalis: 3 h, ~10^7 log phase bacteria, peptides ≤25 µM; for MBC Enterococcus faecalis: ATCC 29212, 3 h
Outline: as §1

[6] = system: Listeria monocytogenes (ATCC 19111); assay type: cell-based; conditions: ATCC 19111, 3 h
Outline: as §1

[7] = system: Salmonella enterica (ATCC 13076); assay type: cell-based; conditions: ATCC 13076, 3 h
Outline: as §1

[8] = peptides carrying a StrepII tag at their C-terminus, 25 µM, 10% Fetal Bovine Serum, 37°C, 18 h; StrepTactin-HRP Western blot
Method: Peptides were incubated in 10% Fetal Bovine Serum at 37°C for 18 h. Full length NCRs were used at 25 μM, while short derivatives at 50 μM. The serum proteins and peptides were separated by sodium dodecyl sulfate-polyacrylamide gel electrophoresis (SDS-PAGE, 12% bis-tris gel, MES buffer pH 7.3) and visualized by Coomassie blue staining. NCRs with StrepII tag at their C-terminus were also detected by Western blot analysis using Precision Protein StrepTactin-HRP conjugate antibody (BioRad) and Clarity Western ECL (BioRad) for chemiluminescence detection according to the supplier.
FIGURE S3 Serum stability assay. Full length NCRs, StrepII-tagged NCR peptides (25 µM) and shorter NCR derivatives (50 µM) were incubated in water or in 10% Fetal Bovine Serum (FBS) for 18 hours at 37°C. Serum proteins and the peptides were separated by SDS-Page and visualized by Coomassie blue staining or in the case of StrepII-tagged NCRs also with Western blot. […]

[9] = system: E. coli in vitro coupled transcription/translation; assay: In vitro transcription/translation assay (GFP production); assay type: biochemical; conditions: RTS 100 E. coli HY Kit, 100 µM peptide or streptomycin, 2 technical parallels
Method: RTS 100 E. coli HY Kit (biotechrabbit Gmbh, Germany, catalog number: BR1400102) was used for the in vitro transcription/translation assay, according to the protocol. pIVEX2.3 control vector was used to produce GFP protein and to measure the translational efficiency. The amount of GFP produced was measured using a Hidex Plate Reader (Hidex Sense Microplate Reader with Plate Reader Software version 5064). […] All peptides and streptomycin were used at 100 µM concentration.
FIGURE 5 GFP production by E. coli in vitro coupled transcription-translation assay in the presence of 100 µM NCR or streptomycin. GFP fluorescence represents the average values of 2 technical parallels with their respective standard deviations (SD). *: p < 0.05, ****: p < 0.0001, as determined by one-way ANOVA.

[10] = quoted in the Introduction; ref Kim et al., 2015; cited from earlier work
From the text: In the Inverted Repeat Lacking Clade (IRLC) of legumes, in addition to defensins, a related family of peptides has evolved that encodes nodule specific, cysteine-rich NCR peptides that play essential roles in symbiosis ([Mergaert et al., 2003]; [Nallu et al., 2013]; [Montiel et al., 2017]). Legume plants in symbiosis with their rhizobium bacterium partner form nitrogen-fixing root nodules. The primary role of the NCR peptides is to convert bacteria into large polyploid, non-cultivable nitrogen-fixing bacteroids in the nodule cells ([Van de Velde et al., 2010]). This is a terminal differentiati ... || IRLC includes 56 genera and more than 4,000 species ([Duan et al., 2021]), and presumably all species have NCRs as it was confirmed in a few selected species. The genus Astragalus, with 2,300–2,500 members, has the highest number of species among angiosperms ([Duan et al., 2021]). In A. canadensis 108 NCRs have been identified ([Montiel et al., 2017]), while in the members of the Vicioid subclade 200–700 NCRs ([Ištvánek et al., 2014]; [Montiel et al., 2017]), thus, it is reasonable to assume that IRLC species in total express hundreds of thousand different NCRs, providing almost unlimited amou ...

Compound | Hemolytic activity on human red blood cells (Human red blood cells) | Antibacterial spectrum over the eight tested bacterial strains [1] | MBC Acinetobacter baumannii [2] [µM] | MBC Pseudomonas aeruginosa [3] [µM] | MBC Escherichia coli [4] [µM] | Ability to kill E. faecalis [5] | MBC Enterococcus faecalis [5] [µM] | MBC Listeria monocytogenes [6] [µM] | MBC Salmonella enterica [7] [µM] | Stability in serum by Western blot [8] | Effect on GFP production (translation) [9] | net charge [10]
CC[C@H](C)[C@H](NC(=O)CNC(=O)[C@@H](NC(=O)[C@H](CCCNC(=N)N)NC(=O)[C@@H]1CCCN1C(=O)[C@H](CS)NC(=O)[C@H](CC(=O)O)NC(=O)[C@H](CCCCN)NC(=O)[C@H](CC(=O)O)NC(=O)[C@H](CCCCN)NC(=O)[C@@H](NC(=O)[C@H](CS)NC(=O)[C@H](CO)NC(=O)[C@H](Cc1c[nH]cn1)NC(=O)[C@H](CC(N)=O)NC(=O)[C@H](CCCNC(=N)N)NC(=O)[C@H](CC(C)C)NC(=O)[C@H](CC(N)=O)NC(=O)[C@@H](NC(=O)[C@@H](N)CO)[C@@H](C)CC)[C@@H](C)CC)C(C)C)C(=O)N[C@@H](CC(C)C)C(=O)N[C@@H](CC(N)=O)C(=O)N[C@H](C(=O)N[C@@H](CCCNC(=N)N)C(=O)N[C@@H](CS)C(=O)N[C@@H](CCCNC(=N)N)C(=O)N[C@@H](CCCCN)C(=O)NCC(=O)N[C@@H](Cc1ccccc1)C(=O)N[C@@H](CS)C(=O)N[C@H](C(=O)N[C@@H](Cc1c[nH]cn1)C(=O)N[C@H](C(=O)N[C@@H](CO)C(=O)O)[C@@H](C)CC)C(C)C)[C@@H](C)CC [MsNCR465] (H-SINLRNHSCIKDKDCPRVGILNIRCRKGFCVHIS-OH; N-terminus assumed) | mild hemolysis at 50 and 100 μM |  |  |  |  |  |  |  |  |  |  | 
CC[C@H](C)[C@H](N)C(=O)N[C@@H](CCCNC(=N)N)C(=O)N[C@H](C(=O)N[C@@H](Cc1c[nH]cn1)C(=O)N[C@@H](CS)C(=O)N[C@@H](CCCCN)C(=O)N[C@@H](CC(=O)O)C(=O)N[C@@H](CC(=O)O)C(=O)N[C@@H](Cc1ccccc1)C(=O)N[C@@H](CC(=O)O)C(=O)N[C@@H](CS)C(=O)N[C@H](C(=O)N[C@@H](CCC(=O)O)C(=O)N[C@@H](CC(N)=O)C(=O)N[C@@H](CCCNC(=N)N)C(=O)N[C@@H](CC(C)C)C(=O)N[C@@H](CCC(N)=O)C(=O)N[C@H](C(=O)NCC(=O)N[C@@H](CS)C(=O)N[C@@H](CCCNC(=N)N)C(=O)N[C@@H](CC(C)C)C(=O)N[C@@H](CCC(N)=O)C(=O)N[C@@H](CCCNC(=N)N)C(=O)N[C@@H](CCC(=O)O)C(=O)N[C@@H](CCCCN)C(=O)N1CCC[C@H]1C(=O)N[C@@H](CCCNC(=N)N)C(=O)N[C@@H](CS)C(=O)N[C@H](C(=O)N[C@@H](CC(N)=O)C(=O)N[C@@H](CC(C)C)C(=O)N[C@H](C(=O)N[C@@H](CS)C(=O)N[C@@H](CCCNC(=N)N)C(=O)N[C@@H](CS)C(=O)N[C@@H](CC(C)C)C(=O)N[C@@H](CCCNC(=N)N)C(=O)N[C@@H](CCCNC(=N)N)C(=O)O)C(C)C)C(C)C)C(C)C)[C@@H](C)CC)[C@@H](C)CC [NCR055] (H-IRIHCKDDFDCIENRLQVGCRLQREKPRCVNLVCRCLRR-OH; N-terminus assumed) |  | effective against six bacterial strains but not against S. aureus and K. pneumonia | 3.125 (≈ 14.9 µg/mL) | 6.25 (≈ 29.7 µg/mL) | 6.25 (≈ 29.7 µg/mL) | able to kill | 12.5 (≈ 59.5 µg/mL) | 3.125 (≈ 14.9 µg/mL) | 6.25 (≈ 29.7 µg/mL) | stable in the presence of FBS |  | 
[H]/N=C(/N)N[C@H]1[C@H](O)[C@@H](O)[C@H](O[C@@H]2O[C@@H](C)[C@](O)(C=O)[C@H]2O[C@@H]2O[C@@H](CO)[C@H](O)[C@@H](O)[C@@H]2NC)[C@@H](N/C(N)=N\[H])[C@@H]1O [streptomycin] |  |  |  |  |  |  |  |  |  |  | inhibited strongly | 
DRECDTDTECQKKFPGVNAHHLWCDNGNCVSYPK [NCR211, anionic M. truncatula NCR peptide] |  | inactive |  |  |  |  |  |  |  |  |  | −2.1
ITISNSSFGRIVYWNCKTDKDCKQHRGFNFRCRSGNCIPIRR-OH (cysteines drawn unpaired) [NCR183] |  | effective against five or four strains |  | 6.25 | 6.25 | able to kill | 25 | 6.25 | 25 | stable in the presence of FBS |  | 
